Where two headings read alike, the source gives them in different places.
Experiments:
Format in all cases: cell-based
[1] = test system: E. coli; assay: Rapid AST/MIC by spectral intensity ratio (SIR), FM 1-43 staining and flow cytometry, directly from positive blood culture; details: E. coli strain from positive blood culture; scatter plot unchanged at high antibiotic concentrations
Description: (§1) In general, the method includes; blood culture centrifugation, bacterial antimicrobial exposure for 2 to 4 hours, bacteria staining with a single fluorescence dye followed by a flow cytometric measurement, and mathematical analysis.
(§2) 31 positive blood cultures were obtained from Sheba Medical Center (Ramat-Gan, Israel) and tested for antimicrobial susceptibility with gentamicin and ampicillin antibiotics (Sigma-Aldrich, USA). A total of 62 positive blood samples-antibiotics combinations were tested. • a) Positive blood samples were received from Sheba Medical Center, 2 ml of each sample were centrifuged for 15 min at 24×g and Supernatants were diluted 1:1000 with Cation-Adjusted Mueller Hinton Broth (CAMHB). • b) Antimicrobial stock solutions were prepared according to CLSI recommendations, and were diluted in CAMHB, to a concentration which was 2 fold higher from the highest concentration recommended for each antimicrobial combination (“Class II Special Controls Guidance Document: Antimicrobial Susceptibility Test (AST) Systems”, Aug. […] As a positive control, a tube with bacterial sample solution (a) without antimicrobial agent. • h) All tubes were incubated at 37° C. • i) 2-4 hours from incubation initiation, 200 μl from each tube were transferred into a fresh tube, dyed with 2 μl of Synaptogreen or FM 1-43 (Sigma-Aldrich; Molecular Probes, respectively) and measured by a flow cytometer. The rest of the sample was further incubated for 16-20 hours and then was visually evaluated for growth.
(§3) In order to quantify the influence of a certain antimicrobial exposure we define the spectral intensity ratio (SIR) as follows: […]
(§4) The MIC is calculated by plotting the spectral intensity ratio (SIR) as a function of the antimicrobial concentration and approximating it to a step function in the form of […]

[2] = test system: K. pneumonia; assay: as above; details: 2-4 hours antibiotic exposure, SIR step function fit
Description: as §1, §2, §3, §4

[3] = test system: 31 positive blood cultures (E. coli, K. pneumonia, A. baummanii, P. mirabilis, E. cloacae, Aeromonass spp., K. oxytoca); assay: Reference macro dilution method, visual growth after 16-20 hours, positive blood cultures; details: for Reference Method Susceptibilities I: number of strains intermediate out of 31 positive blood cultures; for Reference Method Susceptibilities R: number of strains resistant out of 31 positive blood cultures; for Reference Method Susceptibilities S: number of strains susceptible out of 31 positive blood cultures
Description: 31 positive blood cultures were obtained from Sheba Medical Center (Ramat-Gan, Israel) and tested for antimicrobial susceptibility with gentamicin and ampicillin antibiotics (Sigma-Aldrich, USA). A total of 62 positive blood samples-antibiotics combinations were tested. • a) Positive blood samples were received from Sheba Medical Center, 2 ml of each sample were centrifuged for 15 min at 24×g and Supernatants were diluted 1:1000 with Cation-Adjusted Mueller Hinton Broth (CAMHB). • b) Antimicrobial stock solutions were prepared according to CLSI recommendations, and were diluted in CAMHB, to a concentration which was 2 fold higher from the highest concentration recommended for each antimicrobial combination (“Class II Special Controls Guidance Document: Antimicrobial Susceptibility Test (AST) Systems”, Aug. 28, 2009, FDA). • c) For each sample/antimicrobial combination, a set of tubes was prepared for which 1 ml of CAMHB medium was added, except for the first tube. • d) To each first tube of the set, 2 ml from the antimicrobial stock solution (b) was dispensed. • e) From the first tube a serial dilutions of 2 folds were prepared by transferring 1 ml of the solution to the next tube until the lowest required concentration by CLSI. 1 ml was discarded from the last tube in each set of tubes. • f) To each tube in the set, 1 ml of bacterial sample solution (a) was added. • g) For each serial dilutions set, two controls were added. As a negative control, a tube with 2 ml of CAMHB. As a positive control, a tube with bacterial sample solution (a) without antimicrobial agent. • h) All tubes were incubated at 37° C. • i) 2-4 hours from incubation initiation, 200 μl from each tube were transferred into a fresh tube, dyed with 2 μl of Synaptogreen or FM 1-43 (Sigma-Aldrich; Molecular Probes, respectively) and measured by a flow cytometer. The rest of the sample was further incubated for 16-20 hours and then was visually evaluated for growth.
62 samples (31 positive blood cultures and 2 antibiotics combination) were analyzed in triplicates. Each sample was measured by the flow cytometer and the MIC was calculated using the spectral intensity ratio (SIR) calculation and step function estimation. The bacteria identified within the samples were; E. coli (15 samples), K. pneumonia (6 samples), A. baummanii (4 samples), P. mirabilis (2 samples), E. cloacae (2 samples), Aeromonass spp. (1 sample), and K. oxytoca (1 sample).
Tables 1 and 2 present the results of the positive blood sample experiment using the macro dilution as the reference method. […] There are no errors as defined by “Class II Special Controls Guidance Document: Antimicrobial Susceptibility Test (AST) Systems,” Aug. 28, 2009, FDA.

[4] = test system: 30 clinical isolates of E. coli, K. pneumoniae, E. cloacae, P. mirabilis, and C. freundii; assay: Reference macro dilution method, visual growth after 16-20 hours, clinical isolates; details: for Reference Method Susceptibilities I: number of strains intermediate out of 30 clinical isolates; for Reference Method Susceptibilities R: number of strains resistant out of 30 clinical isolates; for Reference Method Susceptibilities S: number of strains susceptible out of 30 clinical isolates
Description: A total of 90 isolates-antibiotics combinations were tested. • a) All strains were cultured onto 5% sheep blood agar (Hylabs, Israel), following overnight incubation, colonies were harvested and suspended in Phosphate Buffer Saline (PBS, Sigma-Aldrich). […] 1 ml was discarded from the last tube in each set of tubes. • g) For each serial dilutions set, two controls were added. As a negative control, a tube with 2 ml of CAMHB. […] The rest of the sample was further incubated for 16-20 hours and then was visually evaluated for growth.

[5] = test system: C. freundii; assay: Rapid AST/MIC by spectral intensity ratio (SIR), FM 1-43 staining and flow cytometry, from clinical isolates; details: C. freundii clinical isolate; up to 32 μg/ml; SIR almost constant
Description: (§5) Our method includes bacterial antimicrobial treatment for 2 to 4 hours, bacteria staining with a single fluorescence dye followed by a flow cytometric measurement, and mathematical analysis. The following paragraphs describe the method in details.
(§6) A total of 90 isolates-antibiotics combinations were tested. • a) All strains were cultured onto 5% sheep blood agar (Hylabs, Israel), following overnight incubation, colonies were harvested and suspended in Phosphate Buffer Saline (PBS, Sigma-Aldrich). […] The rest of the sample was further incubated for 16-20 hours and then was visually evaluated for growth.
(§7) In order to quantify the influence of a certain antimicrobial treatment, we define the spectral intensity ratio (SIR) as follows: […]
(§8) The MIC is calculated by plotting the spectral intensity ratio (SIR) as a function of the antimicrobial concentration and approximating it to a step function in the form of
(§9) Where a, b, and c are parameters and erf is the error function. The parameters are used to approximate the measured SIR to a step function; a is a scaling parameter, b determines the step slope, and c is the MIC value. […]

[6] = test system: E. coli; assay: as above; details: E. coli clinical isolate; 2-4 hours antibiotic exposure; SIR step function fit
Description: as §5, §6, §7, §8, §9

| Compound | Susceptibility (SIR as a function of antibiotic concentration) [1] | MIC ([2]; Klebsiella pneumoniae, read-out: MIC) [µg/mL] | Reference Method Susceptibilities I [3] | Reference Method Susceptibilities R [3] | Reference Method Susceptibilities S [3] | Reference Method Susceptibilities I [4] | Reference Method Susceptibilities R [4] | Reference Method Susceptibilities S [4] | MIC [2] [µg/mL] | Susceptibility (SIR as a function of antibiotic concentration) [5] | MIC [6] [µg/mL] |
| --- | --- | --- | --- | --- | --- | --- | --- | --- | --- | --- | --- |
| CC1(C)S[C@@H]2[C@H](NC(=O)[C@H](N)c3ccccc3)C(=O)N2[C@H]1C(=O)O [Ampicillin, ampicillin] | resistant | 4 | 0 | 26 | 5 | 5 | 9 | 16 | – | – | – |
| gentamicin | – | – | 0 | 10 | 21 | 4 | 5 | 21 | 1 | resistant | 2 |

Reference: patent US10995357B2, “Rapid antimicrobial susceptibility testing based on a unique spectral intensity ratio analysis via single fluorescence membrane dye staining and flow cytometry” (POCARED Diagnostics LTD., priority 2017, dated 2021)
